Tests used:
[1] = DRUGMATRIX: GABAA, Chloride Channel, TBOB radioligand binding (ligand: [3H] TBOB); format: cell membranes, Rattus norvegicus, Wistar, Cerebral cortex, Membrane; details: Not Active = under 50% inhibition at 10 µM
[2] = DRUGMATRIX: beta-Lactamase enzyme inhibition (substrate: Nitrocefin); parameters: species or system Bacillus cereus; details: Not Active = under 50% inhibition at 10 µM
Interstitial collagenase = target: T1, Interstitial collagenase (Homo sapiens, UniProt P03956); format: tissue-based, Rheumatoid synovial fibroblasts;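 further: MMP-1 enzyme inhibition assay using a peptide substrate; in other assays of this panel Not Active means under 50% inhibition at 10 µM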
T1 sequence (P03956 whole entry): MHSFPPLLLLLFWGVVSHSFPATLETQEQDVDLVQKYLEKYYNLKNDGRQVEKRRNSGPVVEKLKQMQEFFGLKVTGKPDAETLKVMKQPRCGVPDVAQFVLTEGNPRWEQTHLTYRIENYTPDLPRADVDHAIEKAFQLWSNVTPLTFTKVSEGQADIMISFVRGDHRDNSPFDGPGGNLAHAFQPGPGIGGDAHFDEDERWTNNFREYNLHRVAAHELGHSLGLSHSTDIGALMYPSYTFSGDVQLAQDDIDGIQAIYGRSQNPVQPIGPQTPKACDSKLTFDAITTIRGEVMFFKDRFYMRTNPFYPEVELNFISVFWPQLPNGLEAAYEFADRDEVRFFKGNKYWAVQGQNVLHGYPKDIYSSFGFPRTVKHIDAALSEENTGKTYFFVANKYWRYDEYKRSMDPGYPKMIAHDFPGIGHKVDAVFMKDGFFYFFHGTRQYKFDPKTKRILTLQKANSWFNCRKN

Neutrophil elastase = target: T2, Neutrophil elastase (Homo sapiens, UniProt P08246); format: tissue-based;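 further: inhibition of neutrophil elastase enzyme activity, measured with a p-nitroanilide-linked peptide substrate; in other assays of this panel Not Active means under 50% inhibition at 10 µM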
T2 sequence (P08246 whole entry): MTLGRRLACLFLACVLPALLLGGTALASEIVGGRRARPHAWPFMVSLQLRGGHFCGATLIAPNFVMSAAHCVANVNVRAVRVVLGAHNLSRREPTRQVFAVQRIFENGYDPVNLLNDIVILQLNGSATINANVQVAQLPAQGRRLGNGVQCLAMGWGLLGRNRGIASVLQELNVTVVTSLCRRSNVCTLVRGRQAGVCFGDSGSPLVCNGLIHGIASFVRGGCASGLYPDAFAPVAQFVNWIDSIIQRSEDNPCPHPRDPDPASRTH

[3] = DRUGMATRIX: Calcium Channel Type L, Phenylalkylamine radioligand binding (ligand: [3H] (-)-Desmethoxyverapamil (D-888)); format: cell membranes, Rattus norvegicus, Wistar, Brain, Membrane; details: Not Active = under 50% inhibition at 10 µM
Leukotriene C4 synthase = target: T3, Leukotriene C4 synthase (Cavia porcellus, UniProt A6XA80); format: tissue-based, Lung;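 further: enzyme inhibition assay of leukotriene C4 synthase, using LTA4 as the substrate; in other assays of this panel Not Active means under 50% inhibition at 10 µM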
T3 sequence (A6XA80 whole entry): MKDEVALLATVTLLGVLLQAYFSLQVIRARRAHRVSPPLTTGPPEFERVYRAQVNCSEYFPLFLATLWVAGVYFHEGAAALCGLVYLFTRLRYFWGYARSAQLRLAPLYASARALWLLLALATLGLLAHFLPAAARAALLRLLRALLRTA

[4] = target: Platelet-activating factor receptor (Homo sapiens, UniProt P25105); assay: biochemical; format: tissue-based; further: in other assays of this panel Not Active means under 50% inhibition at 10 µM
Chain of Platelet-activating factor receptor (P25105 whole entry): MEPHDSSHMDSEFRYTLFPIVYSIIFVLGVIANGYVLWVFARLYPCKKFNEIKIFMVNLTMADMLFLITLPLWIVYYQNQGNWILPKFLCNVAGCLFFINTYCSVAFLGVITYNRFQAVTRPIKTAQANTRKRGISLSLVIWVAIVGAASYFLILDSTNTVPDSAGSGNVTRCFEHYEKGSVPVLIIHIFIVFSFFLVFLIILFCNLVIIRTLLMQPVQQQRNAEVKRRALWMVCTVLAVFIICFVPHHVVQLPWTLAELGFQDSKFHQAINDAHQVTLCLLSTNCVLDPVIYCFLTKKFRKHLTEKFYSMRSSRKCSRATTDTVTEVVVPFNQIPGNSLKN

| SMILES | IC50 [1] | Ki [1] | IC50 [2] | Ki [2] | IC50 (Interstitial collagenase) | IC50 (Neutrophil elastase) | IC50 [3] | Ki [3] | IC50 (Leukotriene C4 synthase) | IC50 ([4]; platelet) | IC50 ([4]; read-out: IC50) [µM] | Ki ([4]; read-out: Ki) [nM] |
| --- | --- | --- | --- | --- | --- | --- | --- | --- | --- | --- | --- | --- |
| CCN[C@@H](C)Cc1cccc(C(F)(F)F)c1 [DEXFENFLURAMINE] | Not Active | Not Active | Not Active | Not Active | Not Active | Not Active | Not Active | Not Active | Not Active | Not Active | – | – |
| C[C@]12C/C(=C/O)C(=O)C[C@@H]1CC[C@@H]1[C@@H]2CC[C@@]2(C)[C@H]1CC[C@]2(C)O [OXYMETHOLONE] | Not Active | Not Active | Not Active | Not Active | Not Active | Not Active | Not Active | Not Active | Not Active | Not Active | – | – |
| C=C(CC)C(=O)c1ccc(OCC(=O)O)c(Cl)c1Cl [ETHACRYNIC ACID] | Not Active | Not Active | Not Active | Not Active | Not Active | Not Active | Not Active | Not Active | Not Active | Not Active | – | – |
| CCOC(=O)[C@H](CCc1ccccc1)N[C@@H](C)C(=O)N1Cc2ccccc2C[C@H]1C(=O)O | Not Active | Not Active | Not Active | Not Active | Not Active | Not Active | Not Active | Not Active | Not Active | Not Active | – | – |
| CCc1oc2ccccc2c1C(=O)c1cc(Br)c(O)c(Br)c1 [BENZBROMARONE] | Not Active | Not Active | Not Active | Not Active | Not Active | Not Active | Not Active | Not Active | Not Active | Not Active | – | – |
| CC[C@H]1OC(=O)[C@H](C)[C@@H](O[C@H]2C[C@@](C)(OC)[C@@H](O)[C@H](C)O2)[C@H](C)[C@@H](O[C@@H]2O[C@H](C)C[C@H](N(C)C)[C@H]2O)[C@](C)(OC)C[C@@H](C)C(=O)[C@H](C)[C@@H](O)[C@]1(C)O [CLARITHROMYCIN] | Not Active | Not Active | Not Active | Not Active | Not Active | Not Active | Not Active | Not Active | Not Active | Not Active | – | – |
| CC(=O)O[C@]1(C(C)=O)CC[C@H]2[C@@H]3C=C(C)C4=CC(=O)CC[C@]4(C)[C@H]3CC[C@@]21C [MEGESTROL ACETATE] | Not Active | Not Active | Not Active | Not Active | Not Active | Not Active | Not Active | Not Active | Not Active | Not Active | – | – |
| CC(C)C[C@H]1C(=O)N2CCC[C@H]2[C@]2(O)O[C@](NC(=O)[C@@H]3C=C4c5cccc6[nH]c(Br)c(c56)C[C@H]4N(C)C3)(C(C)C)C(=O)N12 [BROMOCRIPTINE] | Not Active | Not Active | Not Active | Not Active | Not Active | Not Active | Not Active | Not Active | Not Active | Not Active | – | – |
| CC(=O)O[C@]1(C(C)=O)CC[C@H]2[C@@H]3C=C(Cl)C4=CC(=O)[C@@H]5C[C@@H]5[C@]4(C)[C@H]3CC[C@@]21C [CYPROTERONE ACETATE] | Not Active | Not Active | Not Active | Not Active | Not Active | Not Active | Not Active | Not Active | Not Active | Not Active | – | – |
| CC(C)(Oc1ccc(C2CC2(Cl)Cl)cc1)C(=O)O (stereo unspecified) [CIPROFIBRATE] | Not Active | Not Active | Not Active | Not Active | Not Active | Not Active | Not Active | Not Active | Not Active | Not Active | – | – |
| Cc1cnc(C(=O)NCCc2ccc(S(=O)(=O)NC(=O)NC3CCCCC3)cc2)cn1 [GLIPIZIDE] | Not Active | Not Active | Not Active | Not Active | Not Active | Not Active | Not Active | Not Active | Not Active | Not Active | – | – |
| CC(C)(C)c1ccc(S(=O)(=O)/C=C/C#N)cc1 [BAY-11-7085] | Not Active | Not Active | Not Active | Not Active | Not Active | Not Active | Not Active | Not Active | Not Active | Not Active | – | – |
| Cc1cccc(Nc2ccccc2C(=O)O)c1C [MEFENAMIC ACID] | Not Active | Not Active | Not Active | Not Active | Not Active | Not Active | Not Active | Not Active | Not Active | Not Active | – | – |
| NC[C@@H]1O[C@H](O[C@H]2[C@@H](O)[C@H](O[C@@H]3[C@@H](O)[C@H](N)C[C@H](N)[C@H]3O[C@H]3O[C@H](CN)[C@@H](O)[C@H](O)[C@H]3N)O[C@@H]2CO)[C@H](N)[C@@H](O)[C@@H]1O [FRAMYCETIN] | Not Active | Not Active | Not Active | Not Active | Not Active | Not Active | Not Active | Not Active | Not Active | Not Active | – | – |
| O=C(O)c1cccnc1 [NIACIN] | Not Active | Not Active | Not Active | Not Active | Not Active | Not Active | Not Active | Not Active | Not Active | Not Active | – | – |
| CC[C@]1(O)CC[C@H]2[C@@H]3CCC4=CCCC[C@@H]4[C@H]3CC[C@@]21C | Not Active | Not Active | Not Active | Not Active | Not Active | Not Active | Not Active | Not Active | Not Active | Not Active | – | – |
| COc1cc(CNC(=O)CCCC/C=C/C(C)C)ccc1O [CAPSAICIN] | Not Active | Not Active | Not Active | Not Active | Not Active | Not Active | Not Active | Not Active | Not Active | Not Active | – | – |
| CN(C(=O)CCCOc1ccc2[nH]c(=O)ccc2c1)C1CCCCC1 [CILOSTAMIDE] | Not Active | Not Active | Not Active | Not Active | Not Active | Not Active | Not Active | Not Active | Not Active | – | 3.69 | 1920 |
| CC(=O)OCC(CCn1cnc2cnc(N)nc21)COC(C)=O [FAMCICLOVIR] | Not Active | Not Active | Not Active | Not Active | Not Active | Not Active | Not Active | Not Active | Not Active | Not Active | – | – |
| OCCN1CCN(CCCN2c3ccccc3Sc3ccc(Cl)cc32)CC1 [PERPHENAZINE] | Not Active | Not Active | Not Active | Not Active | Not Active | Not Active | Not Active | Not Active | Not Active | Not Active | – | – |
| COC(=O)c1ccccc1O [METHYL SALICYLATE] | Not Active | Not Active | Not Active | Not Active | Not Active | Not Active | Not Active | Not Active | Not Active | Not Active | – | – |
| C[C@H]([C@](O)(Cn1cncn1)c1ccc(F)cc1F)S(C)(=O)=O [GENACONAZOLE] | Not Active | Not Active | Not Active | Not Active | Not Active | Not Active | Not Active | Not Active | Not Active | Not Active | – | – |
| Clc1cc2c(cc1Cl)Oc1cc(Cl)c(Cl)cc1O2 [2,3,7,8-TETRACHLORODIBENZO-P-DIOXIN] | Not Active | Not Active | Not Active | Not Active | Not Active | Not Active | Not Active | Not Active | Not Active | Not Active | – | – |

— ChEMBL document CHEMBL1909046, “DrugMatrix in vitro pharmacology data”
